± gives the expanded uncertainty stated by the source.
Legend:
[1] = Crystal 1; DTA
[2] = molar enthalpy of vaporization or sublimation; conditions: 298.15 K; Crystal; Static calorimetry
[3] = Molar enthalpy of transition or fusion; conditions: Crystal; DSC

For `CCOC(=S)NC(=O)c1cccs1` [carbamothioic acid, N-(2-thienylcarbonyl)-, O-ethyl ester], the Triple point temperature [1] was 345.9 ± 0.5 K, the molar enthalpy [2] was 34.2 ± 1.43 kcal/mol and the “Molar enthalpy of transition or fusion” value [3] was 5.23 ± 0.234 kcal/mol.

Reference: the NIST ThermoML archive (doi:10.1016/j.jct.2006.10.006)
